Measurements as given in patent US11293927B2, “Screening methods for PARP modulators” (Ribon Therapeutics, Inc., priority 2018, dated 2022).

Assays:
Type in all cases: cell-based
PARP12 = target: T1, PARP12 (Homo sapiens, UniProt Q9H0J9); experiment: NanoBRET probe displacement assay (Probe A) in live 293T cells, PARP12; design: 489-684 of; expressed in transfected cells; host or cells: 293T cells (ATCC), pcDNA3.1; conditions: NanoBRET displacement of Probe A, NanoLuc-tagged PARP12 in live 293T cells
T1 sequence (Q9H0J9 489-684): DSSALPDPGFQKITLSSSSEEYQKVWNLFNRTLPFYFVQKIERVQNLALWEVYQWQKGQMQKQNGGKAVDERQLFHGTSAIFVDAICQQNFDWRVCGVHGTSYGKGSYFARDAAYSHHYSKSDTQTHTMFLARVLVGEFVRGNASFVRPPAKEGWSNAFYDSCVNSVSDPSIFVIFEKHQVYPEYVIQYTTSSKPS
Method: (§1) MonoPARP genes from Table 5 were cloned into the pcDNA3.1-mammalian expression vector as a NanoLuc fusion with NanoLuc on the N- or C-terminus as indicated. The sequence of the NanoLuc tag is as follows: [table] Displacement of a fluorescently-labeled compound Probe A binding to NanoLuc-tagged monoPARP enzymes was measured in live cells using a bioluminescence resonance energy transfer (NanoBRET) assay. TIPARP, PARP10, PARP12 or PARP14 fused to a NanoLuc tag were overexpressed in 293T cells (ATCC) using the plasmids described herein. Plasmid DNA and empty vector DNA were added to phenol red free OptiMEM (Thermo Fisher) as shown in Table 6 in a total volume of 2.456 mL. 157 μL of Fugene HD (Promega) was added to the DNA mixture and allowed to incubate 5 min at 25° C. [table] Next, 2.375 mL of the plasmid-Fugene mixture were added to 20 million 293T cells in DMEM (Thermo Fisher) supplemented with 10% FBS (VWR). The transfection was incubated for 24 h at 37° C. in an incubator containing air supplemented with 5% CO2. The cells were resuspended in phenol red free OptiMEM media. 40 μL of cells were then added to white polystyrene 384-well non-binding surface microplate (Corning). […] Filtered luminescence was measured on an Envision (Perkin Elmer) equipped with a dual 585 nm mirror, 460±40 nm bandpass filter (donor) and 610±50 nm longpass filter (acceptor). […]

full-length TIPARP = target: T2, full-length TIPARP (Homo sapiens, UniProt Q7Z3E1); experiment: NanoBRET probe displacement assay (Probe A) in live 293T cells, full-length TIPARP; conditions: NanoBRET displacement of Probe A, NanoLuc-tagged full-length TIPARP in live 293T cells
T2 construct: 1-657 of; expressed in transfected cells; host or cells: 293T cells (ATCC), pcDNA3.1
T2 sequence (Q7Z3E1 1-657): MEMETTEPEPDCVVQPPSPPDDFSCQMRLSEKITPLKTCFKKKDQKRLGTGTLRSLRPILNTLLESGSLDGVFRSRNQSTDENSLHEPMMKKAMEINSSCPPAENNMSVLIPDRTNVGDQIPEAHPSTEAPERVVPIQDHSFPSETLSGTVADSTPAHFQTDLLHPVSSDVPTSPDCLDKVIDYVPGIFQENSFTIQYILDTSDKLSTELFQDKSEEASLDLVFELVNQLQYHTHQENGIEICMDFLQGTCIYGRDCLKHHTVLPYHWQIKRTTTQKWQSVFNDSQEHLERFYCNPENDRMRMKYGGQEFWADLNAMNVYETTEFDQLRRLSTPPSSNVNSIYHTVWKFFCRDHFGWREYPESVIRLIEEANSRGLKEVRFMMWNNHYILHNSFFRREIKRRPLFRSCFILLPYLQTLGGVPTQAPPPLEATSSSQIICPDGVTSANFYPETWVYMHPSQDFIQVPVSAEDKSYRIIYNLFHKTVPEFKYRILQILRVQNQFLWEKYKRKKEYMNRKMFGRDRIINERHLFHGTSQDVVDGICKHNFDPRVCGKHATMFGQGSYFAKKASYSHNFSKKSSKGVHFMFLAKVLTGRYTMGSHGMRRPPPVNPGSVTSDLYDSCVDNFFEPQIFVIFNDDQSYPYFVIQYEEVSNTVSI
Method: as §1

catalytic domain TIPARP = target: T3, catalytic domain TIPARP (Homo sapiens, UniProt Q7Z3E1); experiment: NanoBRET probe displacement assay (Probe A) in live 293T cells, catalytic domain TIPARP; conditions: NanoBRET displacement of Probe A, NanoLuc-tagged catalytic domain TIPARP in live 293T cells
T3 construct: 456-657 of; expressed in transfected cells; host or cells: 293T cells (ATCC), pcDNA3.1
T3 sequence (Q7Z3E1 456-657): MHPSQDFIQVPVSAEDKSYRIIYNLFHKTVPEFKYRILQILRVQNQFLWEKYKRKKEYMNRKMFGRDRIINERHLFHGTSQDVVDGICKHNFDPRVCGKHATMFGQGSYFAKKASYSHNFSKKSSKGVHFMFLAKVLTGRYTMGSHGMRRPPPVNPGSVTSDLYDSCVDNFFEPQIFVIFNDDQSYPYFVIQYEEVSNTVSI
Method: as §1

PARP10 = target: T4, PARP10 (Homo sapiens, UniProt Q53GL7); experiment: NanoBRET probe displacement assay (Probe A) in live 293T cells, PARP10; conditions: NanoBRET displacement of Probe A, NanoLuc-tagged PARP10 in live 293T cells
T4 sequence (Q53GL7 808-1025): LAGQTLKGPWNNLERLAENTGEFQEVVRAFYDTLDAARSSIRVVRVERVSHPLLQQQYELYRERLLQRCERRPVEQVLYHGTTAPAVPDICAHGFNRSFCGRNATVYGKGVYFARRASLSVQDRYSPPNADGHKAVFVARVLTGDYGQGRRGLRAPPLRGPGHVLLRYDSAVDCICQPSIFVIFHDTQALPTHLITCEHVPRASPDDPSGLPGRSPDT
Method: as §1

IC50 (PARP12) [nM] | IC50 (full-length TIPARP) [nM] | IC50 (catalytic domain TIPARP) [nM] | IC50 (PARP10) [nM] | Compound
170 | 4 | 7 | – | N#Cc1ccc(N2CCN(C(=O)c3cccc(OC[C@@H]4c5ccccc5CN4c4cn[nH]c(=O)c4C(F)(F)F)c3)CC2)nc1 [Compound B, 6-[4-[(3-[[(1S)-2-[6-Oxo-5-(trifluoromethyl)-1,6-dihydropyridazin-4-yl]-2,3-dihydro-1H-isoindol-1-yl]methoxy]phenyl)carbonyl]piperazin-1-yl]pyridine-3-carbonitrile]
– | – | – | 4 | CC(=O)N1CCC(Oc2ccc3c(n2)CN(c2cn[nH]c(=O)c2C(F)(F)F)C3)CC1 [Compound C, 5-[2-[(1-Acetylpiperidin-4-yl)oxy]-5H,6H,7H-pyrrolo[3,4-b]pyridin-6-yl]-4-(trifluoromethyl)-2,3-dihydropyridazin-3-one]
